Data taken from BindingDB's records for doi:10.1021/acs.jmedchem.8b01906 (Siteone Therapeutics, 2019).

Test: Binding affinity to human recombinant Nav1.7 by radioligand binding assay

SMILES | Kd [nM]
Cc1nn([C@@H]2CCN([C@H](C)c3cc(Cl)cc(Cl)c3)C2)c2cc(F)c(C(=O)NS(=O)(=O)C3CC3)cc12 | 22
CS(=O)(=O)NC(=O)c1cc(C2CC2)c(OCC2CCN(Cc3cc(C(F)(F)F)ccc3Cl)CC2)cc1F [US9546164, 580] | 3.5
